Measured values reported in patent US9155722B2, “Reconstitutable reverse thermal gelling polymers” (PROTHERICS SALT LAKE CITY, INC., priority 2009, dated 2015).

Experiments:
[1] = cited from earlier work
physchem = assay: physchem
Experimental: For solubilization studies, the calculated amount of Paclitaxel was add to the block polymers aqueous solution (prepared according to Example 5) and stirred for 10-20 minute at room temperature or 4° C.

[2] = Stability of paclitaxel in copolymer solution or gel; type: physicochemical

increase in solubility of paclitaxel (physchem): ~3000 fold | solubility (physchem; aqueous with cosolvent or surfactant or cyclodextrin, thermodynamic from solid): ≤ 12 mg/mL | paclitaxel intact ([2]; 23% by weight aqueous triblock copolymer solutions or gels, after 30 days in storage (2 to 8° C. and 37° C.)): > 90% | paclitaxel degraded ([2]; aqueous cosolvent solution, in less than one week at 37° C.): > 50%
Structure (SMILES): CC(=O)O[C@H]1C(=O)[C@@]2(C)[C@H]([C@H](OC(=O)c3ccccc3)[C@]3(O)C[C@H](OC(=O)[C@H](O)[C@@H](NC(=O)c4ccccc4)c4ccccc4)C(C)=C1C3(C)C)[C@]1(OC(C)=O)CO[C@@H]1C[C@@H]2O [paclitaxel]
solubility in water [1]: approximately 4 μg/ml
